# From patent US20180318280A1 (Salmon Pharma GmbH, priority 2017, published 2018)
# Legend:
# [1] = test system: S-phosphate, fractional phosphate elimination, FGF23; assay: DBA/2 mice: S-phosphate, fractional phosphate elimination, FGF23; assay type: in vivo, mouse; details: for FGF23 / fractional phosphate elimination: DBA/2 mice
# Source text: For this purpose, 5/6 nephrectomized DBA/2 mice were used as model for vascular calcification.
# serum phosphate = assay: Phase II dose finding study (DONATO), patients on hemodialysis: serum phosphate; assay type: in vivo, human; details: for a 0.22603 mmol/l phosphate level reduction against compare group; dose response of modified release capsules, 4 weeks
# Source text: Secondary outcome criteria included a comparison of the two different […] of nicotinamide by means of several measures of safety and efficacy.
# [2] = given in combination with the phosphate binder sevelamer; cited from earlier work
# GPR109A receptor = GPR109A receptor (Homo sapiens, UniProt Q8TDS4); details: cited from earlier work
# Chain of GPR109A receptor (Q8TDS4 whole entry): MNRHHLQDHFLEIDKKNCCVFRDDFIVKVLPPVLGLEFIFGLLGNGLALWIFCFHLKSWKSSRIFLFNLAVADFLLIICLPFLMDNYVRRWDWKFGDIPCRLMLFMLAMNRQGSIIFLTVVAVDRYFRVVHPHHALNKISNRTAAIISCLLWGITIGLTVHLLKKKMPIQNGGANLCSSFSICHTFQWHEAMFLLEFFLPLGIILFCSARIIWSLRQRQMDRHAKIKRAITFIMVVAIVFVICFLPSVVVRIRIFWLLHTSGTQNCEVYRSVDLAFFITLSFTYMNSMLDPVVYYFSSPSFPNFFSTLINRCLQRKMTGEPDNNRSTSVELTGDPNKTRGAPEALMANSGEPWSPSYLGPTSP
Compound,FGF23 [1],fractional phosphate elimination [1],"S-phosphate ([1]; only in healthy DBA/2 mice with high phosphate diet, NA in the drinking water)",minimum effective dose (serum phosphate),treatment of hyperphosphatemia [2],binding to or effect on the GPR109A receptor (GPR109A receptor)
O=C([O-])[O-].[Mg+2] [magnesium carbonate],reduction,reduction,,,,
NC(=O)c1cccnc1 [nicotinamide],reduction,reduction,decrease,450 mg,ineffective,does not bind or otherwise affect
